Measured values reported in US10174029B2, “Pyrimidine-2,4-diamine derivatives for treatment of cancer” (THOMAS HELLEDAYS STIFTELSE FOR MEDICINSK FORSKNING, priority 2012, dated 2019).

target: MTH1 (Homo sapiens, UniProt P36639); test: MTH1 enzymatic assay and IC50 value determination (malachite green); type: biochemical; settings: MTH1 4.8 nM, dGTP 100 μM, 15 minutes at 22° C.; group: between 2 μM and 10 μM
Description: MTH1 Enzymatic Assay and IC50 Value Determination
MTH1 catalyzes the hydrolysis of dGTP to dGMP and PPi. By coupling the reaction to pyrophosphatase added in excess PPi is converted to Pi that can be detected by using the malachite green assay reagent. Briefly, for IC50 value determination the compound to be analyzed is diluted in assay buffer in a 1:3 dilution series generating 12 different compound concentrations giving a final DMSO concentration of 1% in the assay well. MTH1 diluted in assay buffer (100 mM Tris-acetate, 40 mM NaCl, 10 mM magnesium acetate, 1 mM DTT and 0.005% Tween 20) fortified with E. coli pyrophosphatase (0.8 U/ml) is added to a final concentration of 4.8 nM. dGTP diluted in assay buffer is added to a final concentration of 100 μM. The reaction mixture is incubated with shaking for 15 minutes at 22° C. To 100 μl reaction mixture is 25 μl Malachite green assay regent (0.095% Malachite green in 17% H2SO4, 1.5% Ammonium molybdate, 0.17% Tween 20) added followed by incubation with shaking for 15 minutes at 22° C.
The absorbance of the assay plate is read at 630 nm using an EnVision Multilabel plate reader. The IC50 value is determined by fitting a dose response curve to the data points using nonlinear regression analysis and the equation Y=Bottom+(Top−Bottom)/(1+10^((Log IC50−X)*HillSlope)), where Y is the read absorbance at 630 nm and X is log [compound].

Row | IC50 | SMILES
1 | 2000 to 10000 nM | Nc1nc(NCCN2CCOCC2)cc(-c2ccccc2)n1 [Example 12, 4-N-[2-(morpholin-4-yl)ethyl]-6-phenylpyrimidine-2,4-diamine]
2 | 2000 to 10000 nM | Nc1nc(NC2CCOCC2)cc(-c2cccc(Cl)c2)n1 [Example 21, 6-(3-chlorophenyl)-4-N-(oxan-4-yl)pyrimidine-2,4-diamine]
3 | 2000 to 10000 nM | Cc1ccc(S(=O)(=O)n2cc(-c3cc(N[C@H](C)C4CC4)nc(N)n3)c3ccccc32)cc1 [Example 167, 4-N-[(1R)-1-cyclopropylethyl]-6-[1-(4-methylbenzenesulfonyl)-1H-indol-3-yl]pyrimidine-2,4-diamine]
4 | 2000 to 10000 nM | Cc1cccc(-c2cc(NCC(C)(C)C)nc(N)n2)c1C [Example 181, 6-(2,3-dimethylphenyl)-4-N-(2,2-dimethylpropyl)pyrimidine-2,4-diamine]
5 | 2000 to 10000 nM | Cc1ccc(S(=O)(=O)n2cc(-c3cc(NCC(C)(C)C)nc(N)n3)c3ccccc32)cc1 [Example 182, 4-N-(2,2-dimethylpropyl)-6-[1-(4-methylbenzenesulfonyl)-1H-indol-3-yl]pyrimidine-2,4-diamine]
6 | 2000 to 10000 nM | Cc1ccc(S(=O)(=O)n2cc(-c3cc(NC(C)(C)C)nc(N)n3)c3ccccc32)cc1 [Example 161, 4-N-tert-butyl-6-[1-(4-methylbenzenesulfonyl)-1H-indol-3-yl]pyrimidine-2,4-diamine]

same assay, conditions: MTH1 4.8 nM, dGTP 100 μM, 15 minutes at 22° C.; group: less than 200 nM

Row | SMILES | IC50
7 | Cc1cccc(-c2cc(NCCc3ccccn3)nc(N)n2)c1C [Example 129, 6-(2,3-dimethylphenyl)-4-N-[2-(pyridin-2-yl)ethyl]pyrimidine-2,4-diamine] | < 200 nM
8 | CCCCCNc1cc(-c2cccc(C)c2C)nc(N)n1 [Example 135, 6-(2,3-dimethylphenyl)-4-N-pentylpyrimidine-2,4-diamine] | < 200 nM
9 | Cc1cccc(-c2cc(N[C@@H](C)C3CC3)nc(N)n2)c1C [Example 168, 4-N-[(1S)-1-cyclopropylethyl]-6-(2,3-dimethylphenyl)pyrimidine-2,4-diamine] | < 200 nM
10 | CNc1cc(-c2ccc(OCC3CCN(C(=O)OC(C)(C)C)CC3)c(COC)c2)nc(N)n1 [Example 256, tert-butyl 4-{4-[2-amino-6-(methylamino)pyrimidin-4-yl]-2-(methoxymethyl)phenoxymethyl}piperidine-1-carboxylate] | < 200 nM
11 | CNc1cc(-c2cc(C)ccc2Cl)nc(N)n1 [Example 171, 6-(2-chloro-5-methylphenyl)-4-N-methylpyrimidine-2,4-diamine] | < 200 nM
12 | CNc1cc(-c2cc(Cl)ccc2C)nc(N)n1 [Example 74, 6-(5-chloro-2-methylphenyl)-4-N-methylpyrimidine-2,4-diamine] | < 200 nM
13 | CNc1cc(-c2ccc(OC)c(C)c2)nc(N)n1 [Example 79, 6-(4-methoxy-3-methylphenyl)-4-N-methylpyrimidine-2,4-diamine] | < 200 nM
14 | Nc1nc(NC2CC2)cc(-c2cccc3[nH]ccc23)n1 [Example 230, 4-N-cyclopropyl-6-(1H-indol-4-yl)pyrimidine-2,4-diamine] | < 200 nM
15 | CNc1cc(-c2ccc(F)cc2OC)nc(N)n1 [Example 73, 6-(4-fluoro-2-methoxyphenyl)-4-N-methylpyrimidine-2,4-diamine] | < 200 nM
16 | CNc1cc(-c2ccc(C(F)(F)F)cc2)nc(N)n1 [Example 36, 4-N-methyl-6-[4-(trifluoromethyl)phenyl]pyrimidine-2,4-diamine] | < 200 nM
17 | Cc1ccc2[nH]c(C)c(CCNc3cc(-c4cccc(C)c4C)nc(N)n3)c2c1 [Example 249, 4-N-[2-(2,5-dimethyl-1H-indol-3-yl)ethyl]-6-(2,3-dimethylphenyl)pyrimidine-2,4-diamine] | < 200 nM
18 | CNc1cc(-c2cc(C)c(F)cc2Cl)nc(N)n1 [Example 215, 6-(2-chloro-4-fluoro-5-methylphenyl)-4-N-methylpyrimidine-2,4-diamine] | < 200 nM
19 | CNc1cc(-c2cccc3ncccc23)nc(N)n1 [Example 52, 4-N-methyl-6-(quinolin-5-yl)pyrimidine-2,4-diamine] | < 200 nM
20 | CNc1cc(-c2ccc3c(ccn3S(=O)(=O)c3ccccc3)c2)nc(N)n1 [Example 31, 6-[1-(benzenesulfonyl)-1H-indol-5-yl]-4-N-methylpyrimidine-2,4-diamine] | < 200 nM
21 | CNc1cc(-c2cccc(F)c2F)nc(N)n1 [Example 93, 6-(2,3-difluorophenyl)-4-N-methylpyrimidine-2,4-diamine] | < 200 nM
22 | CNc1cc(-c2cccc(C#N)c2)nc(N)n1 [Example 40, 3-[2-amino-6-(methylamino)pyrimidin-4-yl]benzonitrile] | < 200 nM
23 | CNc1cc(-c2cc(F)c(C)cc2Cl)nc(N)n1 [Example 213, 6-(2-chloro-5-fluoro-4-methylphenyl)-4-N-methylpyrimidine-2,4-diamine] | < 200 nM
24 | CNc1cc(-c2ccc(C(C)(C)O)cc2)nc(N)n1 [Example 173, 2-{4-[2-amino-6-(methylamino)pyrimidin-4-yl]phenyl}propan-2-ol] | < 200 nM

The remaining lines, values ahead:

Row | IC50 | SMILES
25 | < 200 nM | CNc1cc(-c2cccc(NC(=O)C(O)c3ccc(Cl)cc3)c2)nc(N)n1 (stereo not shown) [Example 323, N-{3-[2-Amino-6-(methylamino)pyrimidin-4-yl]phenyl}-2-(4-chlorophenyl)-2-hydroxyacetamide]
26 | < 200 nM | Cc1cccc(-c2cc(NCCc3ccc(C#N)cc3)nc(N)n2)c1C [Example 333, 4-(2-{[2-Amino-6-(2,3-dimethylphenyl)pyrimidin-4-yl]amino}ethyl)benzonitrile]
27 | < 200 nM | Cc1cc(-c2cc(NCCc3ccc(S(N)(=O)=O)cc3)nc(N)n2)c(C)cc1F [Example 439, 4-(2-{[2-amino-6-(4-fluoro-2,5-dimethylphenyl)pyrimidin-4-yl]amino}ethyl)benzene-1-sulfonamide]
28 | < 200 nM | CNc1cc(-c2cccc(NC(=O)C(C)=O)c2)nc(N)n1 [Example 315, N-{3-[2-Amino-6-(methylamino)pyrimidin-4-yl]phenyl}-2-oxopropanamide]
29 | < 200 nM | [2H]C([2H])([2H])Nc1cc(-c2cccc(C)c2C)nc(N)n1 [Example 420, 6-(2,3-dimethylphenyl)-4-N—(^2H3)methylpyrimidine-2,4-diamine]
30 | < 200 nM | Cc1cccc(-c2cc(NCCCNC(=O)Nc3cc(Cl)nc(Cl)c3)nc(N)n2)c1C [Example 361, 3-(3-{[2-Amino-6-(2,3-dimethylphenyl)pyrimidin-4-yl]amino}propyl)-1-(2,6-dichloropyridin-4-yl)urea]
31 | < 200 nM | Cc1cccc(-c2cc(NCCCNS(=O)(=O)c3ccccc3S(C)(=O)=O)nc(N)n2)c1C [Example 403, N-(3-{[2-Amino-6-(2,3-dimethylphenyl)pyrimidin-4-yl]amino}propyl)-2-methanesulfonylbenzene-1-sulfonamide]
32 | < 200 nM | Cc1cccc(-c2cc(NCCNc3cccnc3)nc(N)n2)c1C [Example 454, 6-(2,3-dimethylphenyl)-4-N-{2-[(pyridin-3-yl)amino]ethyl}pyrimidine-2,4-diamine]
33 | < 200 nM | Cc1cccc(-c2cc(NCCNc3ccc(Br)cn3)nc(N)n2)c1C [Example 451, 4-N-{2-[(5-bromopyridin-2-yl)amino]ethyl}-6-(2,3-dimethylphenyl)pyrimidine-2,4-diamine]
34 | < 200 nM | CNc1cc(-c2cccc(NC(=O)c3ccccc3O)c2)nc(N)n1 [Example 326, N-{3-[2-Amino-6-(methylamino)pyrimidin-4-yl]phenyl}-2-hydroxybenzamide]
35 | < 200 nM | Cc1cccc(-c2cc(NCc3cnn(-c4ccc(F)cc4)c3)nc(N)n2)c1C [Example 348, 6-(2,3-Dimethylphenyl)-4-N-{[1-(4-fluorophenyl)-1H-pyrazol-4-yl]methyl}pyrimidine-2,4-diamine]
36 | < 200 nM | Cc1cccc(-c2cc(NCC3(c4ccc(Cl)cc4)CC3)nc(N)n2)c1C [Example 295, 4-N-{[1-(4-chlorophenyl)cyclopropyl]methyl}-6-(2,3-dimethylphenyl)pyrimidine-2,4-diamine]
37 | < 200 nM | Cc1cccc(-c2cc(NCCNc3ccc(S(N)(=O)=O)cn3)nc(N)n2)c1C [Example 443, 6-[(2-{[2-amino-6-(2,3-dimethylphenyl)pyrimidin-4-yl]amino}ethyl)amino]pyridine-3-sulfonamide]
38 | < 200 nM | Cc1cccc(-c2cc(NCC3CCCN(c4ncccn4)C3)nc(N)n2)c1C (stereo not shown) [Example 350, 6-(2,3-Dimethylphenyl)-4-N-{[1-(pyrimidin-2-yl)piperidin-3-yl]methyl}pyrimidine-2,4-diamine]
39 | < 200 nM | Nc1nc(NCCc2ccc(S(N)(=O)=O)cc2)cc(-c2ccc(F)c(F)c2F)n1 [Example 434, 4-(2-{[2-amino-6-(2,3,4-trifluorophenyl)pyrimidin-4-yl]amino}ethyl)benzene-1-sulfonamide]
40 | < 200 nM | CC1CCN(Cc2cccc(CNc3cc(-c4cccc(Cl)c4Cl)nc(N)n3)c2)CC1 [Example 300, 6-(2,3-Dichlorophenyl)-4-N-({3-[(4-methylpiperidin-1-yl)methyl]phenyl}methyl)-pyrimidine-2,4-diamine]
